# Test results published in US6955873B1, “Diagnosis and treatment system for reward deficiency syndrome (RDS) and related behaviors” (priority 1999, dated 2005).
# Entries after “also recorded” stand apart in the source; their conditions may differ. Where two headings read alike, the source gives them in different places.
# Experiments:
# animals [1] = details: cited from earlier work; for rewarding actions: dopamine receptor agonists
# [2] = in vivo; cited from earlier work
# [3] = tested on: synaptosomes in rat brain slices; details: cited from earlier work
# cell culture = details: concentrations thousands of times higher than physiological levels; cited from earlier work
# neurons = details: cited from earlier work
# [4] = cited from earlier work; for duration of action: in vivo
# animals [5] = details: cited from earlier work
# mu-opioid receptor = mu-opioid receptor (Mus musculus, UniProt P42866); details: spinal cord, wild-type mice; cited from earlier work
# [6] = tested on: allergy tested subjects with common cold; details: lozenges
# brain of mice = details: cited from earlier work
# COMT = COMT (Homo sapiens, UniProt P21964); details: cited from earlier work
# MAO = details: cited from earlier work
# 5-HTP decarboxylase = 5-HTP decarboxylase (Homo sapiens, UniProt P20711); details: cited from earlier work
# [7] = tested on: Blood Brain Barrier (BBB); details: mice, vs saline controls, cited from earlier work
# common cold = details: high dose supplementation; cited from earlier work
# animals and humans = details: cited from earlier work
# [8] = tested on: subjects diagnosed with ADHD; details: study in the early 70's; cited from earlier work
# [9] = tested on: patients with age-related memory disorders; details: certain patients; not substantiated by clinical trials; cited from earlier work
# [10] = tested on: spontaneously hypertensive rats (SHR); assay: Blood pressure in spontaneously hypertensive rats (SHR); details: rat, in vivo
# Source text: D-Phenylalanine was able to lower systolic blood pressure of these rats close to normal (average drop of 36.7 mm Hg). It is noteworthy that this effect is blocked by the narcotic antagonist and the effect on blood pressure is synergistic with the beta-blocker popranolol. Even more important is that the lowering of blood pressure by d-phenylalanine lasted several days.
# humans [11] = assay: Blood pressure in humans; format: in vivo, human; details: single dose
# animals and man = details: cited from earlier work; for analgesia: used separately
# mice [12] = details: animal tests; cited from earlier work
# pain patients = details: cited from earlier work
# humans [13] = details: in vivo; cited from earlier work
# alcoholics = details: in vivo; cited from earlier work
# swine = details: in vivo; cited from earlier work
# adult albino rats = details: 10 day administration, 500 ng/kg per day with the drinking water; cited from earlier work
# mice [14] = details: cited from earlier work
# PMDD patients = details: 1200 mg of calcium; cited from earlier work
# rhinovirus = details: reported 1974; cited from earlier work
# aminotripepidase = details: cited from earlier work
# mice [15] = details: cited from earlier work; remark: listed apart in the source
# [16] = mu-opioid receptor knockout mice
# [17] = homozygous mu-opioid receptor knockout mice
# [18] = wild type (and heterozygous) mice
# Sequence of COMT (P21964 whole entry, species assumed): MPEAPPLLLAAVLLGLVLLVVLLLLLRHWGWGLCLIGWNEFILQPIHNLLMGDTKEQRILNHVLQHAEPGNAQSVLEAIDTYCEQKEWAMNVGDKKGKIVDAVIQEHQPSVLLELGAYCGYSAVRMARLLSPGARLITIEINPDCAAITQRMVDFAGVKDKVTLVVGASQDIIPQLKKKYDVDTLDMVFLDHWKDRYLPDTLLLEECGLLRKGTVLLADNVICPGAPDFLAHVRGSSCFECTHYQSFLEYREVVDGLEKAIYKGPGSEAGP
# Sequence of 5-HTP decarboxylase (P20711 whole entry): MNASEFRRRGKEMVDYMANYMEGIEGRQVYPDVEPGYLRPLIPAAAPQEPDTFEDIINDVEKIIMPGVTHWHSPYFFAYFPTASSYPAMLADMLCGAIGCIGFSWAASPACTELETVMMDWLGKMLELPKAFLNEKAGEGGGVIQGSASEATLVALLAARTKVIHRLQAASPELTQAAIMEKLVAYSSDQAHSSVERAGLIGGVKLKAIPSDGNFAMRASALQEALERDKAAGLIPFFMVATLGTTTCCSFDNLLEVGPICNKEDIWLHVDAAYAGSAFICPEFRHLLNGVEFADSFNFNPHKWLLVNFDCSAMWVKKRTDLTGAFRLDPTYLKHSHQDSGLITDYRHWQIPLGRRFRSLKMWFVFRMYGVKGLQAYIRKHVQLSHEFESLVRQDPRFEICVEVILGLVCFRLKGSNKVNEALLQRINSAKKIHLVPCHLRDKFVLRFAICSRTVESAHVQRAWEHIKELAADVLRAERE
# Sequence of mu-opioid receptor (P42866 whole entry): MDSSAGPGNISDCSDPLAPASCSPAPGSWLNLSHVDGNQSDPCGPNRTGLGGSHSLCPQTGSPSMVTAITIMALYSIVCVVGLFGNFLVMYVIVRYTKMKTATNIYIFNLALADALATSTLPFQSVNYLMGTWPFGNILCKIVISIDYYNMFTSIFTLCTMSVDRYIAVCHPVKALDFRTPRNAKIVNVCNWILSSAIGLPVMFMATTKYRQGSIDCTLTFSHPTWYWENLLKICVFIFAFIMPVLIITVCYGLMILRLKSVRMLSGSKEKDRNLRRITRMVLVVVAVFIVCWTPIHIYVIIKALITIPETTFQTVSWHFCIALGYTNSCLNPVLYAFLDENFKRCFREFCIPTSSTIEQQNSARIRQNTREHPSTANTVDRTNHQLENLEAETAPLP
compound,measurement,setting,value
CN1CCc2cccc3c2[C@H]1Cc1ccc(O)c(O)c1-3 [apomorphine],rewarding actions,animals [1],have rewarding actions
Tyr-Arg [Kyotorphin],analgesic activity,[2],analgesic
same,intracellular calcium,[3],enhance intracellular calcium
trivalent chromium,chromosome breakage,cell culture,can break chromosomes
C/C=C1\[C@H]2C=C(C)C[C@]1(N)c1ccc(=O)[nH]c1C2 [Huperzine A],glutamate-induced cellular death of neurons,neurons,blocked
same,time active,[4]; dose of 2 micrograms/kg,six hours
same,duration of action,[4],3 h
same,difference between amounts effective for memory and learning and the non-toxic-effect dose,animals [5]; behavioral studies in animals,30-100 fold
same,side effects,animals [5]; dose of 2 micrograms/kg,no remarkable side effects
C[C@@H](NC(=O)[C@@H](N)Cc1ccc(O)cc1)C(=O)NCC(=O)N(C)[C@@H](Cc1ccccc1)C(=O)NCCO [DAMGO],[35S]GTPgammaS binding,mu-opioid receptor,concentration-dependent Increases
CC(=O)[O-].CC(=O)[O-].[Zn+2] [Zinc acetate],duration of common cold symptoms,[6],significantly shortened
same,symptoms associated with allergies,[6],re3lieved
Tyr-D-arg,analgesic activity,[2],analgesic
same,intracellular calcium,[3],enhance intracellular calcium
"OC[C@H]1O[C@@H](OCCc2ccc(O)cc2)[C@H](O)[C@@H](O)[C@@H]1O [SAL, Salidosid]",disulfuram-induced decrease of NE in the brain,"brain of mice; 30 mg/kg, animals",prevented
same,decrease of content of 5-HT,brain of mice; 30 mg/kg,15%
same,decrease of content of NE,brain of mice; 30 mg/kg,26%
same,decrease of concentration of Dopamine,brain of mice; 100 mg/kg,28%
same,decrease of concentration of NE,brain of mice; 100 mg/kg,20%
same,decrease of concentration of serotonin,brain of mice; 100 mg/kg,23%
same,levels of epinephrine and DOPA,"brain of mice; mouse, in vivo",did not alter
same,COMT activity,COMT,inhibit; also recorded: inhibits COMT activity
same,MAO activity,MAO,inhibit; also recorded: decreases MAO activity
same,activity of 5-HTP decarboxylase,5-HTP decarboxylase,does not alter
same,increase of the rise in serotonin,[7]; SAL 30 mg/Kg with 5-HTP 100 mg/kg,13%
same,increase of the rise in exogenous DOPA,[7]; SAL 30 mg/Kg with L-Dopa 50 mg/kg,26%
Nc1c2c(nc3ccccc13)CCCC2 [Cognex],duration of action,[4],2 h
O=C1O[C@H]([C@@H](O)CO)C(O)=C1O [vitamin C],decrease of incidence of the common cold,common cold,no evidence
NC(Cc1ccccc1)C(=O)O (racemic) [DL-phenylalanine],alcohol intake,animals and humans,significantly lowered
same,anxiety,[8],reduced anxiety
same,mood,[8],increased the mood
Huperzine,learning and memory,[9],improves learning and memory
N[C@H](Cc1ccccc1)C(=O)O [D-phenylalanine],average drop of systolic blood pressure,[10],36.7 mm Hg
same,duration of lowering of blood pressure,[10],several days
same,effect on blood pressure in presence of narcotic antagonist,[10],blocked
same,effect on blood pressure with the beta-blocker popranolol,[10],synergistic
same,heart rate,[10],no change
same,systolic and diastolic blood pressure,[10],significantly lowered
same,effect on blood pressure in normotensive individuals,humans [11],no effect
same,duration of blood pressure lowering,humans [11]; humans,one or more days
same,tolerance or addiction,animals and man; animals and man,without developing tolerance or addiction
same,duration of analgesia,animals and man; humans,very long-lasting
same,analgesia,animals and man; animals and man,excellent analgesia
same,anti-inflammatory character,mice [12],exhibits anti-inflammatory character
same,alcohol intake,animals and humans,significantly lowered
same,pain associated with osteo- and rheumatoid arthritis,pain patients; cross-over studies in humans,reduced pain
same,analgesia in patients reactive to approved analgesic drugs including opiates,pain patients; double-blind studies,induced analgesia
same,analgesic effects of acupuncture,pain patients; in vivo,enhance
CC(C)C[C@H]1C(=O)N2CCC[C@H]2[C@]2(O)O[C@](NC(=O)[C@@H]3C=C4c5cccc6[nH]c(Br)c(c56)C[C@H]4N(C)C3)(C(C)C)C(=O)N12 [bromocriptine],short term memory,humans [13],increase short term memory
same,rewarding actions,animals [1],have rewarding actions
same,reducing relapse rates as a function of dopamine D2 receptor genotype,alcoholics,selective positive effect
methionine-enkephalin,"blood flow in specific brain sites (basal ganglia, frontal cortex, hippocampus)",swine,enhancement of blood flow
NC(=O)CC[C@H](N)C(=O)O [1-glutamine],"content of glutamate, GABA and taurine in the brain",adult albino rats,significant increase
C=CCN1C[C@H](C)N([C@H](c2ccc(C(=O)N(CC)CC)cc2)c2cccc(OC)c2)C[C@H]1C [SNC8O],writhing responses,mice [14]; [16],ineffective
same,writhing responses,mice [14]; wild-type mice,effective
[Ca+2] [calcium],rate of reported symptoms relative to placebo,PMDD patients,fifty percent
[Zn+2] [zinc ions],rhinovirus replication,rhinovirus,inhibit
same,inhibition of aminotripepidase,aminotripepidase,potent inhibitor
O=C(O)CCc1ccccc1 [hydrocinnamic acid],alcohol intake,animals and humans,significantly lowered
CC(C)CC(N)C(=O)O (racemic) [DL-leucine],alcohol intake,animals and humans,significantly lowered
CN1CC[C@]23c4c5ccc(O)c4O[C@H]2[C@@H](O)C=C[C@H]3[C@H]1C5 [Morphine],writhing responses,mice [14]; [16],ineffective
same,writhing responses,mice [14]; wild-type mice,effective
same,withdrawal responses to mechanical stimuli,mice [15]; [17],no significant effect
same,withdrawal responses to mechanical stimuli,mice [15]; [18],dose-dependent reduction
O=C(CCCN1CCC(O)(c2ccc(Cl)cc2)CC1)c1ccc(F)cc1 [haloperidol],alcohol and cocaine self-administration,animals [1]; animals,atenuate or block
CC(C)C[C@@H](N)C(=O)O [D-leucine],analgesia,animals and man; animals and man,excellent analgesia
same,alcohol intake,animals and humans,significantly lowered
DPDPE,withdrawal responses to mechanical stimuli,mice [15]; [17],not
same,withdrawal responses to mechanical stimuli,mice [15]; [18],reduced
